# Results: patent US20220096452A1, “LOCAL ANESTHETIC FOR THE TREATMENT OF NEUROLOGICAL SYMPTOMS RESULTING FROM BRAIN DYSFUNCTIONS” (ICM (INSTITUT DU CERVEAU ET DE LA MOELLE ÉPINIÈRE), priority 2019, published 2022)
# “Also recorded” adds a separate entry of the source.
# Tests used:
# Type in all cases: in vivo, human
# [1] = tested on: patient who suffered from almost complete cortical blindness following a bilateral occipital stroke; experiment: 18F-FDG PET-scan brain metabolism, on vs off periods
# [2] = tested on: patient who suffered from almost complete cortical blindness following a bilateral occipital stroke; experiment: Neurovisual evaluation (BORB and other tests) during on periods
# Text: As shown in the table below, during on periods, all tests involving visual perception were normal, except for a mild deficit in the Facial recognition test, with no discernible impairment of face perception in everyday life.
# [3] = tested on: patient who suffered from almost complete cortical blindness following a bilateral occipital stroke; experiment: Visual field assessment, full-threshold Humphrey visual field (HVF), 24-2 SITA
# Text: Those clinical observations were supported and refined by assessment of the visual field with the full-threshold Humphrey visual field (HVF), 24-2 Swedish Interactive Thresholding Algorithm (SITA) (Carl Zeiss Meditec Inc., Dublin, Calif.).
# The same pattern prevailed using Goldmann perimetry.
# [4] = tested on: patient who suffered from almost complete cortical blindness following a bilateral occipital stroke; experiment: Resting state functional MRI connectivity, on vs off periods
# Procedure: Resting state fMRI is a method of functional magnetic resonance imaging (fMRI) that is used in brain mapping to evaluate regional interactions that occur in a resting or task-negative state, when an explicit task is not being performed. We gathered MRI images while the patient was at rest with their eyes closed, during off and on periods. Those data were analyzed using the CONN toolbox (https://web.conn-toolbox.org/home). We report here two results providing pathophysiological correlates of vision recovery in the patient's right visual hemifield under Mepivacaine.
# The left early visual cortex (or calcarine cortex) is the entry gate into the brain of visual information from the right hemifield. […] We predicted that whatever its underlying mechanism, functional recovery implies a restoration of functional communication between the left calcarine cortex and distant cortical areas.
# We predicted that the restoration of vision should be accompanied with an overall increase of connectivity between the visual system and the rest of the brain. We computed for each voxel of the brain the average connectivity with the rest of the brain (or “intrinsic connectivity”), and studied the changes of this value between off and on periods.
# [5] = tested on: patient who suffered from almost complete cortical blindness following a bilateral occipital stroke; experiment: Clinical assessment of vision (visual field by confrontation), on vs off periods
# Text: In 2010, a patient underwent surgery for the removal of a cervical herniated intervertebral disc (C6-C7). Immediately following surgery, they suffered from a dissection of their right vertebral artery, resulting in bilateral occipital and right cerebellar infarcts. They presented initially with almost complete cortical blindness, left hemiparesis, gait instability, mild swallowing difficulties. Visual perception improved in a small peripheral part of their right visual hemifield, while all other symptoms recovered fully.
# The inverse phenomenon took place, over about 1 minute, during the transition from on to off periods.
# [6] = tested on: patient who suffered from almost complete cortical blindness following a bilateral occipital stroke; experiment: General neurological examination; settings: either off or on Mepivacaine
# Text: Apart from the patient's visual status, […] general neurological examination was normal, either off or on Mepivacaine. They had no sensory or motor impairment, no abnormalities of the cranial nerves, no cognitive deficit (MMSE=29/30, FAB 16/18, Five Words Test 10/10). There was no psychiatric symptoms, except for a depressive mood whenever the patient was off medication and virtually blind.
structure (smiles),measurement,setting,value
"Cc1cccc(C)c1NC(=O)C1CCCCN1C (stereo not shown) [Mepivacaine, I-methyl-2′,6′-pipecoloxylidide]",metabolism in the severely lesioned right mesial occipital cortex,[1]; on and off periods,severe and constant hypometabolism
same,metabolism in the intact left occipital and temporal cortex,"[1]; on vs off periods, FIG. 6",significant increase in metabolism
same,"BORB TEST 1: Copying, score",[2],9/9
same,"BORB TEST 2: Length Match Task, score",[2],26/30
same,"BORB TEST 3: Size Match Task, score",[2],28/30
same,"BORB TEST 4: Orientation Match Task, score",[2],25/30
same,"BORB TEST 5: Position of Gap Match Task, score",[2],37/40
same,"BORB TEST 7: Minimal Feature View Test, score",[2],25/25
same,"BORB TEST 8: Foreshortened View Task, score",[2],25/25
same,"BORB TEST 9: Drawing from Memory, score",[2],6/6
same,"BORB TEST 10: Object Decision Task, score",[2],26/32
same,"BORB TEST 11: Function Match Task, score",[2],31/32
same,"BORB TEST 12: Associative Match Task, score",[2],29/30
same,"Benton's Judgment of Line Orientation, score",[2],14/15
same,"Block design test (WAIS-IV), score",[2],53/66
same,"Facial recognition test (Benton, 1963), score",[2],38/54
same,"Facial recognition test, in words",[2],mild deficit
same,"Hooper Test (Richardson and Marattoli, 1996), score",[2],27/30
same,"Matrix reasoning test (WAIS-IV), score",[2],22/26
same,"OD 80 picture naming test (Deloche and Hannequin, 1996), score",[2],80/80
same,all tests involving visual perception,[2],normal
same,"Block design test (WAIS-IV), NS",[2]; NS,13
same,"Matrix reasoning test (WAIS-IV), NS",[2]; NS,14
same,"BORB TEST 2: Length Match Task, z",[2]; z score,0.56
same,"BORB TEST 3: Size Match Task, z",[2]; z score,0.29
same,"BORB TEST 4: Orientation Match Task, z",[2]; z score,0.08
same,"BORB TEST 5: Position of Gap Match Task, z",[2]; z score,0.48
same,"BORB TEST 7: Minimal Feature View Test, z",[2]; z score,0.85
same,"BORB TEST 8: Foreshortened View Task, z",[2]; z score,1.31
same,"BORB TEST 10: Object Decision Task, z",[2]; z score,0.45
same,"BORB TEST 11: Function Match Task, z",[2]; z score,0.45
same,"BORB TEST 12: Associative Match Task, z",[2]; z score,0.63
same,"Hooper Test (Richardson and Marattoli, 1996), z",[2]; z score,1.30
same,vision in the left superior quadrant,[3]; on period / under Mepivacaine,recovered in a small paramedial island in the left superior quadrant; also recorded: extends to part of the left superior quadrant
same,vision in the right hemifield (HVF),"[3]; on period, FIG. 2","vision returned to normal in the whole right hemifield, except for a small superior paracentral island"
same,island of right visual field corresponding to right occipital infarct,[3]; under Mepivacaine,not improved
same,functional connectivity of right-hemispheric calcarine region (control analysis),[4],no significant differences between on and off periods
same,functional connectivity of left calcarine cortex with bilateral frontoparietal regions,[4]; FIG. 4,increase in connectivity
same,functional connectivity of left calcarine cortex with mesial and lateral regions (default-mode network),[4]; FIG. 4,decrease in correlation
same,intrinsic connectivity of bilateral lateral occipital cortex with the rest of the brain,[4]; FIG. 5,increased its average functional connectivity with the rest of the brain
same,vision in the left hemifield (confrontation),[5]; during on periods,dense hemianopia persisted
same,vision in the right hemifield (confrontation),[5]; during on periods,vision returned to normal in the right hemifield
same,duration of transition from off to on periods (widening of spared vision to whole right hemifield),[5]; patient description,over a matter of seconds
same,duration of transition from on to off periods,[5]; patient description,about 1 minute
same,visual ability of the patient,"[5]; pursuant administration, single patient",improvement of visual ability
same,general neurological examination (apart from visual status),[6],normal
